Experimental data published in patent US20180256673A1, “METHODS FOR TREATING FUNGAL INFECTIONS” (priority 2015, published 2018).
Where “and” joins values, the source holds several entries; their conditions need not be identical. Equal values may be shown once. Read-outs that look alike come from different tables or passages of the source. Starred links: 1 amine or outer side, 2 acyl side, 3 side chain; linkers in the order of their positions; H or OH if unused. Positions of bridges follow the written chain, without caps; N, C: chain ends. Non-standard residues stand in square brackets, D forms with d. Residues, ends and D or L forms follow the SMILES beside them. *: point of attachment. Orn(4R-OH,5R-OCH2CH2NMe3+) = C[N+](C)(C)CCO[C@@H](N[*:3])[C@H](O)C[C@H](N[*:1])C(=O)[*:2]; pTerphenylCO(4''-OnC5H11) = CCCCCOc1ccc(-c2ccc(-c3ccc(C(=O)*)cc3)cc2)cc1; hTyr(3S-OH,4S-OH) = N[C@H](C(=O)O)[C@H](O)[C@@H](O)c1ccc(O)cc1; Pro(3S-OH,4S-Me) = C[C@H]1CN[C@H](C(=O)O)[C@H]1O; Hyp = O=C(O)[C@@H]1C[C@@H](O)CN1

Key:
[1] = tested on: C. krusei; test: Antifungal susceptibility testing (CLSI M27-S4), WT and echinocandin-resistant isolates; details: 24 hr
Experimental: (§1) Antifungal susceptibility testing. Antifungal susceptibility testing was performed in triplicate for a collection of 95 Candida strains (20 C. albicans, 20 C. glabrata, 2 C. dubliniensis, 15 C. krusei, 19 C. parapsilosis, and 19 C. tropicalis) that included 30 isolates showing an echinocandin resistance (ER) phenotype (caspofungin-resistant) in accordance with the guidelines described in the Clinical and Laboratory Standards Institute (CLSI) document M27-S4. […] Stock solutions of the drugs were kept at −86° C.

[2] = tested on: C. albicans NRRL Y-477; test: microbe, parasite or virus in culture; assay type: cell-based, Candida albicans; details: Candida albicans
[3] = tested on: azole-resistant C. albicans (R357); test: Immunosuppressed rat model of vulvovaginal candidiasis, vaginal CFU; assay type: in vivo, Candida albicans; details: once daily for 3 days, intravaginal 0.1 mL/rat (Compound 1 as 3% gel)
[4] = tested on: Candida glabrata; test: microbe, parasite or virus in culture; assay type: cell-based
[5] = tested on: azole-resistant Candida albicans R357 strain; test: microbe, parasite or virus in culture; assay type: cell-based; details: Candida albicans
[6] = tested on: C. glabrata vaginal isolates; test: Susceptibility testing of VVC clinical isolates at pH 7 and 4 (CLSI M27-A3); assay type: cell-based, Candida glabrata; details: for MIC90: Nakaseomyces glabratus
[7] = tested on: C. krusei ATCC 6258; assay type: cell-based, Candida krusei
Experimental: Spontaneous mutant selection. […] Three individual colonies from each strain were used to start cultures in RPMI. […] One milliliter aliquots were spread onto SDA plates containing drug with sterile glass beads. Starting viable count was enumerated by triplicate plating of serial dilutions of the starting inoculum. […] Glycerol stocks of putative mutant colonies were stored at −80° C. […] Spontaneous mutation frequencies were calculated by dividing the number of resistant colonies on a given plate by the starting inoculum plated. A subset of mutants (weighted heavily towards those selected with CMP1) were then evaluated by MIC and sequencing of FKS gene hot spot regions.

[8] = tested on: C. parapsilosis CP02; test: microbe, parasite or virus in culture; assay type: cell-based, Candida parapsilosis; details: Lodderomyces parapsilosis
[9] = tested on: C. parapsilosis; test: Antifungal susceptibility testing (CLSI M27-S4); details: WT (19 isolates); 24 hr
Experimental: as §1

[10] = tested on: C. krusei ATCC 6258, ATCC 14243; test: Time-kill assay in vagina-simulative medium pH 4.0 (Table 20); assay type: cell-based, Candida krusei; details: two C. krusei strains; all concentrations (2-128 μg/mL)
[11] = tested on: C. albicans NRRL Y-477; test: Broth microdilution MIC (CLSI), Examples 3 and 4; details: Candida albicans
Experimental: Antifungal susceptibility testing. […] MIC assays were performed in triplicate.

[12] = tested on: C. glabrata ATCC 90030, ATCC 2001; test: microbe, parasite or virus in culture; assay type: cell-based, Candida glabrata; details: Nakaseomyces glabratus
[13] = tested on: Candida parapsilosis; test: Broth microdilution of invasive fungal isolates (CLSI M27-A3/M38-A2); assay type: cell-based; details: 92 isolates
[14] = tested on: C. krusei ATCC 6258; test: Broth microdilution MIC (CLSI), Examples 3 and 4; details: Pichia kudriavzevii, ATCC6258, 24 h, read-out: Broth MIC
Experimental: Antifungal susceptibility testing. Candida strains were cultured aerobically at 35° C. on SDA plates or in RPMI 1640 broth (pH 7.0). […] MIC assays were performed in triplicate.

[15] = tested on: C. dubliniensis; test: Antifungal susceptibility testing (CLSI M27-S4), WT and echinocandin-resistant isolates; details: 24 hr
Experimental: as §1

[16] = tested on: C. glabrata; test: as above; details: for MIC median (range): 24 hr
Experimental: as §1

[17] = target: 1,3-β-D-glucan synthase from C. albicans (Candida albicans, UniProt O13428, S645P); test: Glucan synthase (GS) inhibition assay; details: IC50, DPL20; Fks1 S645P
[18] = target: 1,3-β-D-glucan synthase from C. albicans (Candida albicans, UniProt O13428); test: Glucan synthase (GS) inhibition assay
[19] = target: 1,3-β-D-glucan synthase from C. albicans (Candida albicans, UniProt O13428, F641S); test: Glucan synthase (GS) inhibition assay; details: IC50, DPL18; Fks1 F641S
1,3-β-D-glucan synthase from C. albicans (Candida albicans, UniProt O13428, F641S), sequence (O13428 entry or part of it F641S): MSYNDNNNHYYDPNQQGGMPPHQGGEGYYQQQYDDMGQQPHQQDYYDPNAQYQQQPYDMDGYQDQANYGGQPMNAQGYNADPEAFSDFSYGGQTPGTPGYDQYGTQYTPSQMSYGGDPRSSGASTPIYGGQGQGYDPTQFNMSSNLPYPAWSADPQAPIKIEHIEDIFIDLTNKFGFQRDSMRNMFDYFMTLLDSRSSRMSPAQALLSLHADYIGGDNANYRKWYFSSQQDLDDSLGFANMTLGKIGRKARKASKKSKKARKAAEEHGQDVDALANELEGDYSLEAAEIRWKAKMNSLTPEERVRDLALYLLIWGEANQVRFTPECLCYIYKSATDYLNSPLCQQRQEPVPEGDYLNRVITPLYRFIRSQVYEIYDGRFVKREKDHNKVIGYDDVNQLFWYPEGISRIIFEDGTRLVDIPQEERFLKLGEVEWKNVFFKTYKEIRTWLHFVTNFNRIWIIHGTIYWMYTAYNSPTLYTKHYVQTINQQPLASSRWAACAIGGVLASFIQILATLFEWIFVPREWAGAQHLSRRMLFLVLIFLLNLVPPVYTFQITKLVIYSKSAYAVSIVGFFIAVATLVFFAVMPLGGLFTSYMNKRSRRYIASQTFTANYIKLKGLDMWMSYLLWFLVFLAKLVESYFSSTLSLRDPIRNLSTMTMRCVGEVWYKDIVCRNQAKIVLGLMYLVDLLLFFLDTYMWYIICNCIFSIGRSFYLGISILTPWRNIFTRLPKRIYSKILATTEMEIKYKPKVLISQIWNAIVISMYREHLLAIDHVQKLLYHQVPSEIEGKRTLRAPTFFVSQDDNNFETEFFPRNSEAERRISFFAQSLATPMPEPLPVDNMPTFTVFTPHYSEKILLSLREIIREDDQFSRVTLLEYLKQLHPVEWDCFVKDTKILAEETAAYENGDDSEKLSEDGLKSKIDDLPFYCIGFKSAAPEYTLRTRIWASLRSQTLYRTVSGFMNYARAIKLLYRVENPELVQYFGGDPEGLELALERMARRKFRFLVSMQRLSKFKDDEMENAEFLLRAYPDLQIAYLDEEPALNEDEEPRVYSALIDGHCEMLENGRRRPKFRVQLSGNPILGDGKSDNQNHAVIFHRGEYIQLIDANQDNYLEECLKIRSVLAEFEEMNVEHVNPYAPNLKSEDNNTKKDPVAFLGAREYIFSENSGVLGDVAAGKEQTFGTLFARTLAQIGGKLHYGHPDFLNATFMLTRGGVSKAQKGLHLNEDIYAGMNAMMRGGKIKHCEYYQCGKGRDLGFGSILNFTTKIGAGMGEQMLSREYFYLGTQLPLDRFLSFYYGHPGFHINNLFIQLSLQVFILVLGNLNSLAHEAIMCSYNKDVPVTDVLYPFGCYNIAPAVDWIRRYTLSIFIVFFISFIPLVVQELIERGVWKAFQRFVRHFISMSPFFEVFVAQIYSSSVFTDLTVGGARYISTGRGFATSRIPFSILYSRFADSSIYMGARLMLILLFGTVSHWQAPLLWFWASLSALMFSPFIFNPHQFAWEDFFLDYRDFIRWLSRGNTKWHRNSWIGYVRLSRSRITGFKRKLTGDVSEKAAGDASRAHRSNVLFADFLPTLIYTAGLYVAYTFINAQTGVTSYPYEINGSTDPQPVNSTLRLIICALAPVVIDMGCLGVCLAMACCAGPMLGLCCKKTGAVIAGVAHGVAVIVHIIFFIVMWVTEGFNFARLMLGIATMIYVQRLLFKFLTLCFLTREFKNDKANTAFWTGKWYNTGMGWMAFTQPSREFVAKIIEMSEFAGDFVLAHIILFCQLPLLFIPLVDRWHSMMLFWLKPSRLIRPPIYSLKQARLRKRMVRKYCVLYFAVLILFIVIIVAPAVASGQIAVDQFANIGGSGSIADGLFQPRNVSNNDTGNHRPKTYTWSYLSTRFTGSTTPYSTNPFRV

1,3-β-D-glucan synthase from C. albicans (Candida albicans, UniProt O13428, S645P), sequence (O13428 entry or part of it S645P): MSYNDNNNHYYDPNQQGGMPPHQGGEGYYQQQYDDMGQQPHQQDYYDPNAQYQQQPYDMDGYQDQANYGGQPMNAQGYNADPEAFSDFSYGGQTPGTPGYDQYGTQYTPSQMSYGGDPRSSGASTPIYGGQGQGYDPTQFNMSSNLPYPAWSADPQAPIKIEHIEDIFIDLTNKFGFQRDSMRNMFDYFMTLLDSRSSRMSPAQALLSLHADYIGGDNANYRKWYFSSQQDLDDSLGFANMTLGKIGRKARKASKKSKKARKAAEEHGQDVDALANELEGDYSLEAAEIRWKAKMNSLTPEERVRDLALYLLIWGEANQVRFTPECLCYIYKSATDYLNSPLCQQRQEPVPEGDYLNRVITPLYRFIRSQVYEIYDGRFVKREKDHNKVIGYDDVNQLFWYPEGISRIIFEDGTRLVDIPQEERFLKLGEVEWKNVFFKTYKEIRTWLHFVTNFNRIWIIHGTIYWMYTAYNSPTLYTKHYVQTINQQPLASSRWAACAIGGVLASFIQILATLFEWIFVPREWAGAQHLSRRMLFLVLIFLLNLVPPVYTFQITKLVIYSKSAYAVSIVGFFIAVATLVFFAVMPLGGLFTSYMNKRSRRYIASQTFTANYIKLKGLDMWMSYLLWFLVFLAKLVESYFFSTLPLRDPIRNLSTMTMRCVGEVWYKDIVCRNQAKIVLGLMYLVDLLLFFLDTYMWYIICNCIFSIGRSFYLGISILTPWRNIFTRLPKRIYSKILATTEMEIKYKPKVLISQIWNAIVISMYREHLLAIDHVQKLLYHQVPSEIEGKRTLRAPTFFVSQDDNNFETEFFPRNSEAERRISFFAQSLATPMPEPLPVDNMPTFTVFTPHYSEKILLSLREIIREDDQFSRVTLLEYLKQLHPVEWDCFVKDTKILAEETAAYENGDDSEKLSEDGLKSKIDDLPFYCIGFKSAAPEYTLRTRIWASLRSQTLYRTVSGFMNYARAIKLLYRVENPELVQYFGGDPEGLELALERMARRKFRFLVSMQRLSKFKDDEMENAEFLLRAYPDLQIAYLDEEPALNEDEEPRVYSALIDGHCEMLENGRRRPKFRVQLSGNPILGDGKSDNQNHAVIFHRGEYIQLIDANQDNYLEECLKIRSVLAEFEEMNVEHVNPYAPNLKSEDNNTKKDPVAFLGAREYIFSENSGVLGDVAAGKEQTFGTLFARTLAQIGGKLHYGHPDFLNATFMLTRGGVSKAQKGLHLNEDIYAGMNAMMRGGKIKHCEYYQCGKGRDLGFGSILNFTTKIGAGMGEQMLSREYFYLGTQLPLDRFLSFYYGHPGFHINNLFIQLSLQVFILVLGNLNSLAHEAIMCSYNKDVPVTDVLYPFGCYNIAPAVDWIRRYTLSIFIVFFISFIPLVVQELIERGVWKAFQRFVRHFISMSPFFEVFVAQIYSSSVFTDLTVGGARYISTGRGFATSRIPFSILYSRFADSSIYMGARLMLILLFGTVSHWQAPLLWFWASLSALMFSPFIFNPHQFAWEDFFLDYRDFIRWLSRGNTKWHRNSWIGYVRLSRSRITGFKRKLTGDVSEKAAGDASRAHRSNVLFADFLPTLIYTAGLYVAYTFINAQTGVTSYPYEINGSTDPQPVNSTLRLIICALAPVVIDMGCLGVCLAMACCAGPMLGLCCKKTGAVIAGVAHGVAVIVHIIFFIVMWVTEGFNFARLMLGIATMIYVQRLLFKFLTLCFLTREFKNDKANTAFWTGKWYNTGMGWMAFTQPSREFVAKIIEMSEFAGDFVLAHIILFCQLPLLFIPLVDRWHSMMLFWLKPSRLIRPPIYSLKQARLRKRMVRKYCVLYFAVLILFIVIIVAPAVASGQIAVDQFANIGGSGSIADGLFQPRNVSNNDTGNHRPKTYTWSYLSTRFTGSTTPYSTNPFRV

CCCCCOc1ccc(-c2ccc(-c3ccc(C(=O)N[C@H]4C[C@@H](O)[C@@H](OCC[N+](C)(C)C)NC(=O)[C@@H]5[C@@H](O)[C@@H](C)CN5C(=O)[C@H]([C@@H](C)O)NC(=O)[C@H]([C@H](O)[C@@H](O)c5ccc(O)cc5)NC(=O)[C@@H]5C[C@@H](O)CN5C(=O)[C@H]([C@@H](C)O)NC4=O)cc3)cc2)cc1 [Compound 1] ({pTerphenylCO(4''-OnC5H11)}-[Orn(4R-OH,5R-OCH2CH2NMe3+)]T[Hyp][hTyr(3S-OH,4S-OH)]T[Pro(3S-OH,4S-Me)]; lactam 1-C) was tested, and the “MIC median (range)” value ([1]; ER (4 isolates)) was 0.50 (<0.03-4) mg/L, the “MIC median (range)” value ([1]; WT (11 isolates)) was 0.03 (<0.03-0.06) mg/L and the MIC ([2]; NRRLY477, 48 h, NRRL Y-477 P20-1, selecting drug ANID, Fks1 HS1 S645Y, 48 h read) was 2 µg/mL. The MIC ([2]; NRRLY477, 48 h, NRRL Y-477 P20-1, selecting drug CMP1, 48 h read) was 0.25 µg/mL, the MIC ([2]; NRRLY477, NRRL Y-477 P20-1, selecting drug CAS) was 0.03 µg/mL and the MIC ([2]; NRRLY477, read-out: MIC P20, NRRL Y-477, total population after 20 passages with the selecting drug, MIC of selecting drug) was 0.25 µg/mL. For the same molecule, the “reduction in vaginal CFU compared with no treatment control” value ([3]; a week later, 8 days after treatment end (day 12)) was over 3 log-fold, the “reduction in vaginal CFU compared with no treatment control” value ([3]; one day after treatment end (day 5)) was 3.8 log-fold and the “Cumulative % of isolates inhibited at MIC 0.015 μg/mL” value [4] was “(3.0) %”. The “Cumulative % of isolates inhibited at MIC 0.03 μg/mL” value [4] was “(62.0) %”, the “Cumulative % of isolates inhibited at MIC 0.06 μg/mL” value [4] was “(91.0) %” and the “Cumulative % of isolates inhibited at MIC 0.25 μg/mL” value [4] was “(95.0) %”. The “Cumulative % of isolates inhibited at MIC 0.5 μg/mL” value [4] was “(95.0) %”, the “Cumulative % of isolates inhibited at MIC 1 μg/mL” value [4] was “(96.0) %” and the “Cumulative % of isolates inhibited at MIC 2 μg/mL” value [4] was “(99.0) %”. The “Cumulative % of isolates inhibited at MIC 4 μg/mL” value [4] was “(100.0) %”, the “Number of isolates inhibited at MIC 0.015 μg/mL” value [4] was 3 and the “Number of isolates inhibited at MIC 0.03 μg/mL” value [4] was 59. The “Number of isolates inhibited at MIC 0.06 μg/mL” value [4] was 29, the “Number of isolates inhibited at MIC 0.12 μg/mL” value [4] was 4 and the “Number of isolates inhibited at MIC 0.25 μg/mL” value [4] was 0. The “Number of isolates inhibited at MIC 0.5 μg/mL” value [4] was 0, the “Number of isolates inhibited at MIC 1 μg/mL” value [4] was 1 and the “Number of isolates inhibited at MIC 2 μg/mL” value [4] was 3. For the same molecule, the “Number of isolates inhibited at MIC 4 μg/mL” value [4] was 1, the MIC50 ([4]; Nakaseomyces glabratus, read-out: MIC50) was 0.03 µg/mL and the MIC90 ([4]; Nakaseomyces glabratus, read-out: MIC90) was 0.06 µg/mL. For the same molecule, the MIC ([4]; Nakaseomyces glabratus, read-out: MIC results) was 2 to 4 µg/mL, the MIC [5] was 0.125 µg/mL and the “Number of isolates at MIC 0.125 μg/mL” value ([6]; 21 VVC isolates, 24 h, pH 4) was 2. The “Number of isolates at MIC 0.25 μg/mL” value ([6]; 21 VVC isolates, 24 h, pH 4) was 3, the “Number of isolates at MIC 0.5 μg/mL” value ([6]; 21 VVC isolates, 24 h, pH 4) was 15 and the “Number of isolates at MIC 2 μg/mL” value ([6]; 21 VVC isolates, 24 h, pH 4) was 1. The “Number of isolates at MIC 0.06 μg/mL” value ([6]; 21 VVC isolates, 24 h, pH 7) was 3, the “Number of isolates at MIC 0.125 μg/mL” value ([6]; 21 VVC isolates, 24 h, pH 7) was 17 and the “Number of isolates at MIC 2 μg/mL” value ([6]; 21 VVC isolates, 24 h, pH 7) was 1. For the same molecule, the “Number of isolates at MIC 0.25 μg/mL” value ([6]; 21 VVC isolates, 48 h, pH 4) was 2, the “Number of isolates at MIC 0.5 μg/mL” value ([6]; 21 VVC isolates, 48 h, pH 4) was 8 and the “Number of isolates at MIC 1 μg/mL” value ([6]; 21 VVC isolates, 48 h, pH 4) was 9. The “Number of isolates at MIC 2 μg/mL” value ([6]; 21 VVC isolates, 48 h, pH 4) was 2, the “Number of isolates at MIC 0.06 μg/mL” value ([6]; 21 VVC isolates, 48 h, pH 7) was 2 and the “Number of isolates at MIC 0.125 μg/mL” value ([6]; 21 VVC isolates, 48 h, pH 7) was 16. The “Number of isolates at MIC 0.25 μg/mL” value ([6]; 21 VVC isolates, 48 h, pH 7) was 1, the “Number of isolates at MIC 0.5 μg/mL” value ([6]; 21 VVC isolates, 48 h, pH 7) was 1 and the “Number of isolates at MIC 2 μg/mL” value ([6]; 21 VVC isolates, 48 h, pH 7) was 1. The MIC90 ([6]; 24 h, pH 4) was 0.5 µg/mL, the MIC90 ([6]; 24 h, pH 7) was 0.125 µg/mL and the MIC90 ([6]; 48 h, pH 4) was 1 µg/mL. For the same molecule, the MIC90 ([6]; 48 h, pH 7) was 0.25 µg/mL, the Median mutation frequency [7] was 3.86E−09 and the Plate concentration ([7]; SDA, minimum concentration to cleanly inhibit growth) was 0.25 µg/mL. The “Freq. (replicate mutation frequency)” value ([7]; replicate plates 1-3, listed as CMP1) was 1.54E−08 and 3.51E−09 and 3.86E−09, the MIC ([8]; CP02, CP02 P20-1, selecting drug ANID) was 4 µg/mL and the MIC ([8]; CP02, CP02 P20-1, selecting drug CMP1) was 4 µg/mL. The MIC ([8]; CP02, read-out: MIC P20, CP02, total population after 20 passages with the selecting drug, MIC of selecting drug) was 4 µg/mL, the “MIC median (range)” value [9] was 2 (2-4) mg/L and the “time at which cidality (≥3-log reduction in CFU) was achieved” value [10] was under 24 h. It also gave an MIC ([11]; NRRLY477) of 0.25 µg/mL, an MIC ([11]; NRRLY477, 24 h, read-out: Broth MIC) of 0.03 µg/mL and an MIC ([12]; 48 h, ATCC 90030 P20-1, selecting drug ANID, Fks2 HS1 D666I, 48 h read) of 2 µg/mL. It also gave an MIC ([12]; ATCC 2001 P20-2, selecting drug CAS) of 2 µg/mL, an MIC ([12]; ATCC 2001 P20-2, selecting drug CMP1) of 1 µg/mL and an MIC ([12]; ATCC 90030 P20-2, selecting drug CMP1) of 1 µg/mL. The MIC ([12]; read-out: MIC P20, ATCC 2001, total population after 20 passages with the selecting drug, MIC of selecting drug) was 1 µg/mL, the MIC ([12]; read-out: MIC P20, ATCC 90030, total population after 20 passages with the selecting drug, MIC of selecting drug) was 1 µg/mL and the “Cumulative % of isolates inhibited at MIC 0.5 μg/mL” value [13] was “(23.9) %”. For the same molecule, the “Cumulative % of isolates inhibited at MIC 1 μg/mL” value [13] was “(62.0) %”, the “Cumulative % of isolates inhibited at MIC 2 μg/mL” value [13] was “(98.9) %” and the “Cumulative % of isolates inhibited at MIC 4 μg/mL” value [13] was “(100.0) %”. The “Number of isolates inhibited at MIC 0.5 μg/mL” value [13] was 22, the “Number of isolates inhibited at MIC 1 μg/mL” value [13] was 35 and the “Number of isolates inhibited at MIC 2 μg/mL” value [13] was 34. For the same molecule, the “Number of isolates inhibited at MIC 4 μg/mL” value [13] was 1, the MIC50 ([13]; Lodderomyces parapsilosis, read-out: MIC50) was 1 µg/mL and the MIC90 ([13]; Lodderomyces parapsilosis, read-out: MIC90) was 2 µg/mL. The MIC [14] was 0.06 µg/mL, the “MIC median (range)” value ([15]; ER (1 isolate)) was 0.03 µg/mL and the “MIC median (range)” value ([15]; WT (1 isolate)) was 0.03 µg/mL. The “% of ER isolates with an MIC” value ([16]; C. glabrata ER isolates (n=11)) was 18%, the “MIC median (range)” value ([16]; ER (11 isolates)) was 1.00 (0.12-4) mg/L and the “MIC median (range)” value ([16]; WT (9 isolates)) was 0.06 (0.03-0.12) mg/L. It also gave an IC50 [17] of 2150 nM, an IC50 ([18]; IC50, DPL1002, WT) of 11.6 nM and an IC50 ([18]; IC50, glucan synthase, ATCC 90028, WT) of 11.4 nM. For the same molecule, the IC50 ([18]; glucan synthase, DPL22, Fks1p S645P/S) was 24.5 nM and the IC50 [19] was 283 nM.
